Data as given in patent US20090170195A1, “CURCUMIN-HYALURONAN COMPOUNDS” (KENT STATE UNIVERSITY, priority 2007, published 2009).

Assays:
NIH3T3 = experiment: MTS cytotoxicity assay, NIH3T3; type: cell-based; conditions: Mus musculus; NIH3T3, MTS cell viability
Procedure: (§1) Cytotoxicity effect of dissociable curcumin-hyaluronan complex, the curcumin-hyaluronan complex having a substantially non-acid labile covalent bond and free curcumin was detected by MTS (3-(4,5-dimethylthiazol-2yl)-5-(3-[…]-2-(4-sulfophenyl)-2H-tetrazolium) assay. The formazan color intensity was measured directly from 96 well plates in terms of absorbance at 490 nm and 630 nm using a 96-well multi-scanner (MRX Revelation; Dynex Technologies). For calculating cell viability (%) all the appropriate correction was made and the IC50 values were determined from sigmoidal fitting of the data. FIGS. 3-5 represent confocal microscopy images representing the uptake of curcumin and the dissociable complex into the C-13, NIH3T3 and RA-8001 cell lines.

MCF7 = conditions: from Simon et al., Cancer Lett., (1998), 129, 111; cited from earlier work
RA-8001 = experiment: MTS cytotoxicity assay, RA-8001; type: cell-based; conditions: Homo sapiens; RA-8001, MTS cell viability
Procedure: as §1

C-13 = experiment: MTS cytotoxicity assay, C-13; type: cell-based; conditions: Homo sapiens, C13; C-13, MTS cell viability
Procedure: as §1

MDAMB231 = experiment: MTS cytotoxicity assay, MDAMB231; type: cell-based; conditions: Homo sapiens, MDA-MB-231; MDAMB231, MTS cell viability
Procedure: as §1

MCF7 (Dox resistance) = experiment: MTS cytotoxicity assay, MCF7 (Dox resistance); type: cell-based; conditions: Homo sapiens, MTS cell viability
Procedure: as §1

## COc1cc(/C=C/C(=O)CC(=O)/C=C/c2ccc(O)c(OC)c2)ccc1O [Curcumin]
NIH3T3
  IC50: 23.9 ± 3.19 µM
MCF7
  IC50: 15 µM
RA-8001
  IC50: 11.1 ± 2.3 µM
C-13
  IC50: 22.2 µM
MDAMB231
  IC50: 27.5 ± 3.36 µM
MCF7 (Dox resistance)
  IC50: 27.4 ± 0.892 µM
